Laboratory results reported in ChEMBL document CHEMBL1139487, “Discovery of corticotropin releasing factor 2 receptor selective sauvagine analogues for treatment of skeletal muscle atrophy” (J Med Chem, 2005).

Columns and labels:
[1] = molecular target: Corticotropin-releasing factor receptor 2 (Mus musculus) (UniProt Q60748); assay: In vitro agonistic activity against mouse corticotropin releasing factor 2 receptor; assay type: functional
[2] = molecular target: T1, Corticotropin-releasing factor receptor 1 (Mus musculus) (UniProt P35347); assay: In vitro agonistic activity against mouse corticotropin releasing factor 1 receptor; assay type: functional
T1 sequence (whole entry): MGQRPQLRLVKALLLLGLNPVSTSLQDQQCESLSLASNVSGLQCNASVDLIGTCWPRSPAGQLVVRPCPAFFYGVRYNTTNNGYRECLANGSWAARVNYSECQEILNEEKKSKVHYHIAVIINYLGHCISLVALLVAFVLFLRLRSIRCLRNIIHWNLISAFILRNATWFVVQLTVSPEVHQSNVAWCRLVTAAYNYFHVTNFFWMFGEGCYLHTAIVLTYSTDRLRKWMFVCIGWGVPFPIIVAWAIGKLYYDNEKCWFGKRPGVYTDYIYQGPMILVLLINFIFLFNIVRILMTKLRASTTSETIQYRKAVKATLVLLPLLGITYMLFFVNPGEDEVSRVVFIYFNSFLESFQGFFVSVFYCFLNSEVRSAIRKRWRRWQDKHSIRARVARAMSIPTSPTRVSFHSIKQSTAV

[3] = molecular target: T2, Corticotropin-releasing factor receptor 1 (Mus musculus, UniProt P35347); assay: In vitro effective concentration for mouse corticotropin releasing factor 1 receptor
T2 sequence (P35347 whole entry): T1 sequence (whole entry)

Chain of Corticotropin-releasing factor receptor 2 (Mus musculus) (Q60748 whole entry): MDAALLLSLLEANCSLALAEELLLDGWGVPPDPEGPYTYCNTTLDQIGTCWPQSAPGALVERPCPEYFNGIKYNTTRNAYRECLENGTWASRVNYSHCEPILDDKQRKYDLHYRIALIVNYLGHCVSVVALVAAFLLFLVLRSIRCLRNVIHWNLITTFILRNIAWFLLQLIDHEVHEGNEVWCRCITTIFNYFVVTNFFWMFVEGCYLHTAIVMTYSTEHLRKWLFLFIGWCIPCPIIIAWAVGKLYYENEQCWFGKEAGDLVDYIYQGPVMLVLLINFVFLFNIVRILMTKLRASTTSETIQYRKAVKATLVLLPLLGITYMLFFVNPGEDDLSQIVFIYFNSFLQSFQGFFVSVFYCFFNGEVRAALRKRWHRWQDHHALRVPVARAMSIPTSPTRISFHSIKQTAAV

Row | Emax [1] | Emax [2] | EC50 [3] | Molecule
1 | 82% | 87% | – | CC[C@H](C)[C@H](NC(=O)[C@@H](NC(=O)[C@H](CCC(=O)O)NC(=O)[C@H](CCSC)NC(=O)[C@H](CC(C)C)NC(=O)[C@H](CCCCN)NC(=O)[C@H](CCCN=C(N)N)NC(=O)[C@H](CC(N)=O)NC(=O)[C@H](CO)NC(=O)[C@H](Cc1c[nH]cn1)NC(=O)[C@H](C)NC(=O)[C@H](CCC(N)=O)NC(=O)[C@H](CCC(N)=O)NC(=O)[C@H](C)NC(=O)[C@H](CC(C)C)NC(=O)[C@H](CCC(N)=O)NC(=O)[C@H](CCC(=O)O)NC(=O)[C@H](C)NC(=O)[C@H](CCCN=C(N)N)NC(=O)[C@H](C)NC(=O)[C@H](CCSC)NC(=O)[C@H](CCC(=O)O)NC(=O)[C@H](CC(C)C)NC(=O)[C@@H](NC(=O)[C@H](CCC(=O)O)NC(=O)[C@H](CCCN=C(N)N)NC(=O)[C@H](CC(C)C)NC(=O)[C@H](CC(C)C)NC(=O)[C@H](Cc1c[nH]cn1)NC(=O)[C@H](Cc1ccccc1)NC(=O)[C@@H](NC(=O)[C@H](CC(C)C)NC(=O)[C@H](CC(=O)O)NC(=O)[C@H](CC(C)C)NC(=O)[C@H](CO)NC(=O)[C@@H](NC(=O)[C@@H]1CCCN1C(=O)[C@@H]1CCCN1C(=O)[C@H](CCC(=O)O)NC(=O)[C@H](CCC(=O)O)NC(=O)[C@@H](N)CO)[C@@H](C)CC)[C@@H](C)O)C(C)C)[C@@H](C)CC)C(=O)O
2 | 96% | 8% | – | H-IVLSLDVPIGLLQILLEQARARAAREQATTNARILARV-OH
3 | – | – | 20 nM | CC[C@H](C)[C@H](NC(=O)[C@@H](NC(=O)[C@H](CCC(=O)O)NC(=O)[C@H](CCSC)NC(=O)[C@H](CC(C)C)NC(=O)[C@H](CCCCN)NC(=O)[C@H](CCCNC(=N)N)NC(=O)[C@H](CC(N)=O)NC(=O)[C@H](CO)NC(=O)[C@H](Cc1c[nH]cn1)NC(=O)[C@H](C)NC(=O)[C@H](CCC(N)=O)NC(=O)[C@H](CCC(N)=O)NC(=O)[C@H](C)NC(=O)[C@H](CC(C)C)NC(=O)[C@H](CCC(N)=O)NC(=O)[C@H](CCC(=O)O)NC(=O)[C@H](C)NC(=O)[C@H](CCCNC(=N)N)NC(=O)[C@H](C)NC(=O)[C@H](CCSC)NC(=O)[C@H](CCC(=O)O)NC(=O)[C@H](CC(C)C)NC(=O)[C@@H](NC(=O)[C@H](CCC(=O)O)NC(=O)[C@H](CCCNC(=N)N)NC(=O)[C@H](CC(C)C)NC(=O)[C@H](CC(C)C)NC(=O)[C@H](Cc1c[nH]cn1)NC(=O)[C@H](Cc1ccccc1)NC(=O)[C@@H](NC(=O)[C@H](CC(C)C)NC(=O)[C@H](CC(=O)O)NC(=O)[C@H](CC(C)C)NC(=O)[C@H](CO)NC(=O)[C@@H](NC(=O)[C@@H]1CCCN1C(=O)[C@@H]1CCCN1C(=O)[C@H](CCC(=O)O)NC(=O)[C@H](CCC(=O)O)NC(=O)[C@@H](N)CO)[C@@H](C)CC)[C@@H](C)O)C(C)C)[C@@H](C)CC)C(N)=O [HUMAN CORTICOTROPIN RELEASING FACTOR]
4 | 95% | 99% | – | CC[C@H](C)[C@H](NC(=O)[C@@H](NC(=O)[C@H](CC(=O)O)NC(=O)[C@H](CC(C)C)NC(=O)[C@H](CC(C)C)NC(=O)[C@H](CC(C)C)NC(=O)[C@H](CCCN=C(N)N)NC(=O)[C@H](CC(N)=O)NC(=O)[C@H](CC(N)=O)NC(=O)[C@H](C)NC(=O)[C@H](C)NC(=O)[C@H](CCC(N)=O)NC(=O)[C@H](CCC(N)=O)NC(=O)[C@H](CCCCN)NC(=O)[C@H](CCC(=O)O)NC(=O)[C@H](CCCCN)NC(=O)[C@H](CCC(=O)O)NC(=O)[C@H](CCC(N)=O)NC(=O)[C@H](CCCCN)NC(=O)[C@H](CCC(=O)O)NC(=O)[C@@H](NC(=O)[C@H](CCC(=O)O)NC(=O)[C@@H](NC(=O)[C@H](CCSC)NC(=O)[C@H](CCCCN)NC(=O)[C@H](CCCN=C(N)N)NC(=O)[C@H](CC(C)C)NC(=O)[C@H](CC(C)C)NC(=O)[C@H](CCC(=O)O)NC(=O)[C@H](CC(C)C)NC(=O)[C@H](CO)NC(=O)[C@H](CC(C)C)NC(=O)[C@H](CC(=O)O)NC(=O)[C@@H](NC(=O)[C@H](CO)NC(=O)[C@@H](NC(=O)[C@@H]1CCCN1C(=O)[C@@H]1CCCN1C(=O)CNC(=O)[C@@H]1CCC(=O)N1)[C@@H](C)CC)[C@@H](C)CC)[C@@H](C)CC)[C@@H](C)CC)[C@@H](C)O)C(=O)O [SAUVAGINE]
